Results on 18 compounds are retold here after patent US20090155209A1, “NOVEL MACROCYCLIC INHIBITORS OF HEPATITIS C VIRUS REPLICATION” (priority 2007, published 2009).

The IC50 is the midpoint of a concentration-inhibition curve. A high value points to weaker potency. Broadly, the EC50 is the concentration that produces a half-maximal response. Read a high EC50 as a need for much substance.

A short description of series [1]: Single ascending dose study, fasted and fed: safety and non-compartmental plasma PK. As to conditions: single dose, healthy volunteers. It counts as in vivo, healthy volunteers (human). The method, then:
A single ascending dose (SAD) study of the compound 100 was conducted in healthy volunteers. The compound 100 was administered as monotherapy both with and without food. The safety and pharmacokinetic profile of the single dose of the compound 100 was assessed.
Interim, blinded data were used for Pharmacokinetic (PK) study relating to food effects. With the exception of the 400 mg cohort, eight subjects were studied at each dose (single doses of 100, 200, or 800 mg of the sodium salt of the compound 100, which may be referred to herein as ITMN-191, administered in the fasting state). In the 400 mg cohort, ten subjects received single 400 mg doses of ITMN-191 under both fasted and fed conditions with a 5-day washout period between dosing. In the 100 mg cohort, subjects were sampled within 1 hour before dosing and at 0.5, 1, 1.5, 2, 2.5, 3, 4, 6, 8, 12, 18, 24, 32 and 48 hours after dosing. For subsequent cohorts, subjects were sampled within 1 hour before dosing and at 0.25, 0.5, 1, 1.5, 2, 2.5, 3, 4, 6, 8, 12, 18, 24, and 32 hours after dosing. Nominal (not actual) sampling times were used for the analysis. PK samples were analyzed using liquid chromatography-tandem mass spectrometry (LC/MS/MS with API 4000 mass spectrometer) following solid-phase extraction. The upper and lower limits of quantitation (ULOQ and LLOQ) are 100 and 0.01 ng/mL, respectively.
Pharmacokinetic parameter estimates were calculated using non-compartmental methods (implemented using Microsoft Excel®). Half-lives were determined by visual inspection of the log concentration-time plots to choose the terminal phase (minimum of three detectable observations). Using linear regression of the chosen terminal phase observations, elimination rate constants were calculated as the negative slope of the regression line and half-life as the natural log of 2 divided by the elimination rate constant.
Ten subjects received single 1600 mg doses of ITMN-191 under both fasted and fed conditions with a 5-day washout period between dosing. For each condition, subjects were sampled within 1 hour before dosing and at 0.25, 0.5, 1, 1.5, 2, 2.5, 3, 4, 6, 8, 12, 18, 24, and 32 hours after dosing. Pharmacokinetic parameter estimates were calculated using non-compartmental methods. Half-life (t1/2) was determined by visual inspection of the log concentration-time plots to choose the terminal phase (minimum of three detectable observations). Using linear regression of the chosen terminal phase observations, elimination rate constants were calculated as the negative slope and half-life as the natural log of 2 divided by the elimination rate constant.

Series [2] deals with T1, NS3-NS4 (Hepatitis C virus genotype 1a, UniProt P27958). Kind of series: NS3-NS4 activity, IC50 (Example 37, Table 8). In kind it is biochemical.
T1 sequence (P27958 1027-1657): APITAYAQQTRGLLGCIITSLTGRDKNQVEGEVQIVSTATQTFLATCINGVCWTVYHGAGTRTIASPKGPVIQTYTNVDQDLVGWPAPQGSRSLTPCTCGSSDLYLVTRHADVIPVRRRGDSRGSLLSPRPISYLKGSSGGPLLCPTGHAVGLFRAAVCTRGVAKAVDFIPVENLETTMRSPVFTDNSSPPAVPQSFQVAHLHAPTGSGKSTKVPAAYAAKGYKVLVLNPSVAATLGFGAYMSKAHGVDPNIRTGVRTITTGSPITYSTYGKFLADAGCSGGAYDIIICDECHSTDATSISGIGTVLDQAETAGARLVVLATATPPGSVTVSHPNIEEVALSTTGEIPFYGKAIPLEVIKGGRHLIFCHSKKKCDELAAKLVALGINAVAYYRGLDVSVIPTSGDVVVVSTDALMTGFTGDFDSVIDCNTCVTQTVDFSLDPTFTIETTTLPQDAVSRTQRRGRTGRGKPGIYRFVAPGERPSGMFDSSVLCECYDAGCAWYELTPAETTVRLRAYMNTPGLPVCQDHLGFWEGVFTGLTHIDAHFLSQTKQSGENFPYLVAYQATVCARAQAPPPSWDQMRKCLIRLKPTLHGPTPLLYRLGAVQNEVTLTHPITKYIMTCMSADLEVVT
T1 sequence (P27958 1658-1711): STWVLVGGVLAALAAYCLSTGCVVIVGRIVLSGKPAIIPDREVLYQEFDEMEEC
Series [3] has as its target T1, NS3-NS4. The series can be described thus: cell-based. As to conditions: EC50, NS3-NS4 activity.

`CC(C)(C)OC(=O)N[C@H]1CCCCC/C=C\[C@@H]2C[C@@]2(C(=O)NS(=O)(=O)C2CC2)NC(=O)[C@@H]2C[C@@H](OC(=O)N3Cc4cccc(F)c4C3)CN2C1=O` [compound 100]: in series [1] (all doses), the tolerability entry is recorded as “well tolerated”. Also, the “exposure when administered with food, compared to without food” value in series [1] is recorded as “higher than anticipated exposure”.
Compound `O=C1N[C@]2(C(=O)NS(=O)(=O)C3CC3)C[C@H]2/C=C\CCCCC[C@H](NC(=O)N2CCOCC2)C(=O)N2C[C@H](OC(=O)N3Cc4cccc(F)c4C3)C[C@@H]12` [Compound 414] came in with a half-inhibitory concentration (IC50) against NS3-NS4 [2] of less than 100 nM. On NS3-NS4 [3], this compound gave a concentration giving a half-maximal response (EC50) of 100 to 1000 nM.
As for `O=C1N[C@]2(C(=O)NS(=O)(=O)C3CC3)C[C@H]2/C=C\CCCCC[C@H](Nc2nc(-c3ccc(F)cc3F)cs2)C(=O)N2C[C@H](OC(=O)N3Cc4cccc(F)c4C3)C[C@@H]12` [Compound 219], at NS3-NS4 [2], the half-maximal inhibitory concentration (IC50) was less than 100 nM. The EC50 on NS3-NS4 [3] was less than 100 nM.
Turning to `CC(C)(C)OC(=O)N[C@H]1CCCCC[C@H]2C[C@H]2[C@@H]2C[C@@]2(C(=O)NS(=O)(=O)C2CC2)NC(=O)[C@@H]2C[C@@H](OC(=O)N3Cc4cccc(F)c4C3)CN2C1=O` [Compound 904], on NS3-NS4 [2], the IC50 was less than 100 nM. This compound also came in with an EC50 at NS3-NS4 [3] of less than 100 nM.
Compound `O=C1N[C@]2(C(=O)NS(=O)(=O)C3CC3)C[C@H]2/C=C\CCCCC[C@H](Nc2nc(-c3cccc(C(F)(F)F)c3)cs2)C(=O)N2C[C@H](OC(=O)N3Cc4cccc(F)c4C3)C[C@@H]12` [Compound 218] displayed an IC50 against NS3-NS4 [2] of less than 100 nM. For the same compound, the EC50 at NS3-NS4 [3] was less than 100 nM.
In turn, `CONC(=O)[C@@]12C[C@H]1/C=C\CCCCC[C@H](NC(=O)OC(C)(C)C)C(=O)N1C[C@H](OC(=O)N3Cc4cccc(F)c4C3)C[C@H]1C(=O)N2` [Compound 104, (2R,6S,13aS,14aR,16aS,Z)-6-(tert-butoxycarbonylamino)-14a-(methoxycarbamoyl)-5,16-dioxo-1,2,3,5,6,7,8,9,10,11,13a,14,14a,15,16,16a-hexadecahydrocyclopropa[e]pyrrolo[1,2-a][1,4]diazacyclopentadecin-2-yl 4-fluoroisoindoline-2-carboxylate] came in with a half-maximal inhibitory concentration (IC50) against NS3-NS4 [2] of less than 100 nM. Besides, at NS3-NS4 [3], the EC50 fell in the range of 1000 to 10000 nM.
The corresponding values for `CC(C)(C)OC(=O)N[C@H]1CCCCC/C=C\[C@@H]2C[C@@]2(C(=O)NS(=O)(=O)c2cc(Cl)ccc2Cl)NC(=O)[C@@H]2C[C@@H](OC(=O)N3Cc4cccc(F)c4C3)CN2C1=O` [Compound 316] are less than 100 nM and less than 100 nM.
On to `CC(C)(C)OC(=O)N[C@H]1CCCCC/C=C\[C@@H]2C[C@@]2(C(=O)NS(=O)(=O)Cc2ccc(F)c(F)c2)NC(=O)[C@@H]2C[C@@H](OC(=O)N3Cc4cccc(F)c4C3)CN2C1=O` [Compound 522], for which the concentration for half-maximal inhibition (IC50) at NS3-NS4 [2] is less than 100 nM. On NS3-NS4 [3], this compound returned an EC50 of 100 to 1000 nM.
On to `N#Cc1ccc(-c2csc(N[C@H]3CCCCC/C=C\[C@@H]4C[C@@]4(C(=O)NS(=O)(=O)C4CC4)NC(=O)[C@@H]4C[C@@H](OC(=O)N5Cc6cccc(F)c6C5)CN4C3=O)n2)cc1` [Compound 211], for which the half-maximal inhibitory concentration (IC50) against NS3-NS4 [2] is less than 100 nM. Also, on NS3-NS4 [3], the EC50 is less than 100 nM.
On to `CCC(C)(C)OC(=O)N[C@H]1CCCCC/C=C\[C@@H]2C[C@@]2(C(=O)NS(=O)(=O)C2CC2)NC(=O)[C@@H]2C[C@@H](OC(=O)N3Cc4cccc(F)c4C3)CN2C1=O` [Compound 405, (2R,6S,13aS,14aR,16aS,Z)-14a-(cyclopropylsulfonylcarbamoyl)-5,16-dioxo-6-(tert-pentyloxycarbonylamino)-1,2,3,5,6,7,8,9,10,11,13a,14,14a,15,16,16a-hexadecahydrocyclopropa[e]pyrrolo[1,2-a][1,4]diazacyclopentadecin-2-yl 4-fluoroisoindoline-2-carboxylate], for which, on NS3-NS4 [2], the half-maximal inhibitory concentration (IC50) was less than 100 nM. The concentration giving a half-maximal response (EC50) at NS3-NS4 [3] was less than 100 nM.
On to `CC(C)(C)OC(=O)N[C@H]1CCOCC/C=C\[C@@H]2C[C@@]2(C(=O)NS(=O)(=O)c2ccc(Cl)cc2)NC(=O)[C@@H]2C[C@@H](OC(=O)N3Cc4cccc(Cl)c4C3)CN2C1=O` [Compound 324, (2R,6S,13aS,14aR,16aSZ)-6-(tert-butoxycarbonylamino)-14a-(4-chlorophenylsulfonylcarbamoyl)-5,16-dioxo-2,3,5,6,7,8,10,11,13a,14,14a,15,16,16a-tetradecahydro-1H-cyclopropa[j]pyrrolo[1,2-f][1,6,9]oxadiazacyclopentadecin-2-yl 4-chloroisoindoline-2-carboxylate], for which the IC50 at NS3-NS4 [2] was less than 100 nM. The half-maximal effective concentration (EC50) on NS3-NS4 [3] is less than 100 nM.
As to `CC(C)(C)CONC(=O)[C@@]12C[C@H]1/C=C\CCCCC[C@H](NC(=O)OC(C)(C)C)C(=O)N1C[C@H](OC(=O)N3Cc4cccc(F)c4C3)C[C@H]1C(=O)N2` [Compound 720], the IC50 against NS3-NS4 [2] is less than 100 nM. In addition, the EC50 at NS3-NS4 [3] was less than 100 nM.
As for `O=C1N[C@]2(C(=O)NS(=O)(=O)C3CC3)C[C@H]2/C=C\CCCCC[C@H](NC(=O)N2CCCCC2)C(=O)N2C[C@H](OC(=O)N3Cc4cccc(F)c4C3)C[C@@H]12` [Compound 415], the concentration for half-maximal inhibition (IC50) against NS3-NS4 [2] is less than 100 nM. At NS3-NS4 [3], this compound yielded an EC50 of less than 100 nM.
`Cc1nc(N[C@H]2CCCCC/C=C\[C@@H]3C[C@@]3(C(=O)NS(=O)(=O)C3CC3)NC(=O)[C@@H]3C[C@@H](OC(=O)N4Cc5cccc(F)c5C4)CN3C2=O)sc1C` [Compound 231] had an IC50 against NS3-NS4 [2] of less than 100 nM. On NS3-NS4 [3], this compound came in with an EC50 of less than 100 nM.
In turn, `CC(C)(C)OC(=O)N[C@H]1CCCCC/C=C\[C@@H]2C[C@@]2(C(=O)NS(=O)(=O)c2ccccc2F)NC(=O)[C@@H]2C[C@@H](OC(=O)N3Cc4cccc(F)c4C3)CN2C1=O` [Compound 349] registered an IC50 at NS3-NS4 [2] of less than 100 nM. In addition, at NS3-NS4 [3], the EC50 was less than 100 nM.
The compound `O=C1N[C@]2(C(=O)NS(=O)(=O)C3CC3)C[C@H]2/C=C\CCCCC[C@H](Nc2nc(-c3cccc(F)c3)cs2)C(=O)N2C[C@H](OC(=O)N3Cc4cccc(F)c4C3)C[C@@H]12` [Compound 215] displayed a concentration for half-maximal inhibition (IC50) against NS3-NS4 [2] of less than 100 nM. At NS3-NS4 [3], this compound showed an EC50 of less than 100 nM.
As to `CC(C)(C)OC(=O)N[C@H]1CCCCCCC[C@@H]2C[C@@]2(C(=O)NS(=O)(=O)c2ccccc2)NC(=O)[C@@H]2C[C@@H](OC(=O)N3Cc4cccc(F)c4C3)CN2C1=O` [Compound 601], the IC50 on NS3-NS4 [2] is less than 100 nM. Besides, the EC50 at NS3-NS4 [3] is less than 100 nM.
Compound `Cc1cnc(N[C@H]2CCCCC/C=C\[C@@H]3C[C@@]3(C(=O)NS(=O)(=O)C3CC3)NC(=O)[C@@H]3C[C@@H](OC(=O)N4Cc5cccc(F)c5C4)CN3C2=O)s1` [Compound 226] displayed an IC50 against NS3-NS4 [2] of less than 100 nM. This compound also showed a concentration giving a half-maximal response (EC50) on NS3-NS4 [3] of less than 100 nM.
